Experimental data: patent US12251387B2, “Substituted quinoxalines and benzo[c][1,2,5]oxadiazoles as DNA-PK inhibitors” (Vertex Pharmaceuticals Incorporated, priority 2013, dated 2025)

Biological target: DNA-PK (Homo sapiens, UniProt P78527)
Experiment: DNA-PK Inhibition Assay (standard radiometric kinase assay, 33P-ATP, peptide substrate)
Assay type: biochemical
Details: radiometric assay, approximately 6 nM DNA-PK, 100 μM ATP, 45 min; fit to competitive tight-binding inhibition; read-out: Ki for the inhibition of DNA-PK
How it was run: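 Radiometric transfer of 33P from ATP (100 μM) to peptide substrate (0.8 mg/mL) by about 6 nM DNA-PK with 10 μg/mL sheared dsDNA, pH 7.5 HEPES/MgCl2, 45 min, phosphoric acid quench, filter capture and scintillation counting. Ki fitted to a competitive tight-binding inhibition model.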

Q: With `CN(C)CCc1cnc(N[C@H]2CC[C@@H](Oc3cc(N4CCOCC4)cc4nccnc34)CC2)nc1` [Compound 431] as the compound, how does the Ki read?
A: < 100 nM

Q: Which Ki does the source give for `Fc1cc(N[C@H]2CC[C@@H](Oc3cc(N4CCOCC4)cc4nccnc34)CC2)ccn1` [Compound 642] here?
A: < 100 nM

Q: `Cc1ncccc1N[C@H]1CC[C@@H](Oc2cc(N3CCOCC3)cc3nccnc23)CC1` [Compound 442] was tested. Which Ki did it give?
A: < 100 nM

Q: For `CNC(=O)c1cc(N[C@H]2CC[C@@H](Oc3cc(N4CC5CC(C4)O5)cc4nccnc34)CC2)ncn1` [Compound 315], which Ki is on record?
A: < 100 nM

Q: For `OCc1ccnc(N[C@H]2CC[C@@H](Oc3cc(N4CCOCC4)cc4nccnc34)CC2)c1` [Compound 615], which Ki is on record?
A: < 100 nM

Q: Which Ki does the source give for `NC(=O)c1csc(N[C@H]2CC[C@@H](Oc3cc(N4CCOCC4)cc4nccnc34)CC2)n1` [Compound 331] here?
A: < 100 nM

Q: Which Ki does the source give for `O=C1NCCc2nc(N[C@H]3CC[C@@H](Oc4cc(N5CCOCC5)cc5nccnc45)CC3)sc21` [Compound 322] here?
A: < 100 nM

Q: How did the Ki turn out when `CC1(C)CC(c2cnc(N[C@H]3CC[C@@H](Oc4cc(N5CCOCC5)cc5nccnc45)CC3)nc2)CC(C)(C)N1` [Compound 550] was run?
A: < 100 nM

Q: How did the Ki turn out when `CCOc1nccc(N[C@H]2CC[C@@H](Oc3cc(N4CCOCC4)cc4nccnc34)CC2)n1` [Compound 279] was run?
A: < 100 nM

Q: Which Ki does the source give for `CN(C)C(=O)N[C@H]1CC[C@@H](Oc2cc(N3CCOCC3)cc3nccnc23)CC1` [Compound 411] here?
A: < 100 nM

Q: For `c1ncc(N[C@H]2CC[C@@H](Oc3cc(N4CCOCC4)cc4nccnc34)CC2)cn1` [Compound 575], which Ki is on record?
A: < 100 nM

Q: For `CN1Cc2c(N[C@H]3CC[C@@H](Oc4cc(N5CCOCC5)cc5nccnc45)CC3)cccc2C1=O` [Compound 340], which Ki is on record?
A: < 100 nM

Q: `COc1cccnc1N[C@H]1CC[C@@H](Oc2cc(N3CCOCC3)cc3nccnc23)CC1` [Compound 592] was tested. Which Ki did it give?
A: < 100 nM

Q: Which Ki does the source give for `Cc1nccc(N[C@H]2CC[C@@H](Oc3cc(N4CCOCC4)cc4nonc34)CC2)n1` [Compound 316] here?
A: < 100 nM

Q: Which Ki does the source give for `FC(F)Oc1ccc(N[C@H]2CC[C@@H](Oc3cc(N4CCOCC4)cc4nccnc34)CC2)nc1` [Compound 572] here?
A: < 100 nM

Q: With `CCc1nccc(N[C@H]2CC[C@@H](Oc3cc(N4CCOCC4)cc4nccnc34)CC2)n1` [Compound 439] as the compound, how does the Ki read?
A: < 100 nM

Q: With `Clc1cncc(N[C@H]2CC[C@@H](Oc3cc(N4CCOCC4)cc4nccnc34)CC2)n1` [Compound 374] as the compound, how does the Ki read?
A: < 100 nM

Q: Which Ki does the source give for `O=C(N[C@H]1CC[C@@H](Oc2cc(N3CCOCC3)cc3nccnc23)CC1)N1CCCCC1` [Compound 416] here?
A: < 100 nM

Q: Which Ki does the source give for `CN1CCc2cnc(N[C@H]3CC[C@@H](Oc4cc(N5CCOCC5)cc5nccnc45)CC3)nc2C1` [Compound 556] here?
A: < 100 nM

Q: With `Cc1ncc(C)c(N[C@H]2CC[C@@H](Oc3cc(N4CCOCC4)cc4nccnc34)CC2)n1` [Compound 490] as the compound, how does the Ki read?
A: < 100 nM

Q: Which Ki does the source give for `CNC(=O)c1ccnc(N[C@H]2CC[C@@H](Oc3cc(C4=CCOCC4)cc4nccnc34)CC2)n1` [Compound 319] here?
A: < 100 nM

Q: With `CN1CCc2ncnc(N[C@H]3CC[C@@H](Oc4cc(N5CCOCC5)cc5nccnc45)CC3)c2C1` [Compound 398] as the compound, how does the Ki read?
A: < 100 nM

Q: For `c1nc2c(c(N[C@H]3CC[C@@H](Oc4cc(N5CCOCC5)cc5nccnc45)CC3)n1)CCN2` [Compound 370], which Ki is on record?
A: < 100 nM

Q: With `Fc1ccc(N[C@H]2CC[C@@H](Oc3cc(N4CCOCC4)cc4nccnc34)CC2)nc1` [Compound 622] as the compound, how does the Ki read?
A: < 100 nM

Q: Which Ki does the source give for `COCc1ccnc(N[C@H]2CC[C@@H](Oc3cc(N4CCOCC4)cc4nccnc34)CC2)c1` [Compound 582] here?
A: < 100 nM

Q: How did the Ki turn out when `c1cc(CN2CCCCC2)nc(N[C@H]2CC[C@@H](Oc3cc(N4CCOCC4)cc4nccnc34)CC2)n1` [Compound 504] was run?
A: < 100 nM

Q: How did the Ki turn out when `c1cnc2c(O[C@H]3CC[C@@H](Nc4ncc(CCN5CCCC5)cn4)CC3)cc(N3CCOCC3)cc2n1` [Compound 432] was run?
A: < 100 nM

Q: `Cn1ccc(N[C@H]2CC[C@@H](Oc3cc(N4CCOCC4)cc4nccnc34)CC2)cc1=O` [Compound 311] was tested. Which Ki did it give?
A: < 100 nM

Q: With `CN1CC[C@@H](Nc2ncnc(N[C@H]3CC[C@@H](Oc4cc(N5CCOCC5)cc5nccnc45)CC3)c2F)C1` [Compound 327] as the compound, how does the Ki read?
A: < 100 nM

Q: How did the Ki turn out when `NC(=O)c1cnc2cc(N3CCOCC3)cc(O[C@H]3CC[C@@H](Nc4ncccn4)CC3)c2n1` [Compound 606] was run?
A: < 100 nM

Q: For `O=C1Cc2cnc(N[C@H]3CC[C@@H](Oc4cc(N5CCOCC5)cc5nccnc45)CC3)nc2N1` [Compound 552], which Ki is on record?
A: < 100 nM
